Converted amounts (≈) assume the structure as drawn. Where two headings read alike, the source gives them in different places.
Experiments:
S. mutans [1] = assay: Minimum inhibitory and minimum bactericidal concentrations against S. mutans grown in a typical culture medium; format: cell-based; conditions: Streptococcus mutans; for MBC: read-out: MBC (minimum bactericidal concentration); for MIC: read-out: MIC (minimum inhibitory concentration)
S. mutans [2] = assay: Acid inhibition (AI): 0.1 normal NaOH needed to neutralize acid produced by S. mutans from sucrose after 48 hours; format: cell-based; conditions: trypticase-yeast medium containing sucrose, 48 hours incubation
Procedure: Acid inhibition (AI) is a measure of acid production when S. mutans attacks sucrose to form pyruvic and lactic acids. The organism is added to a culture medium (trypticase-yeast) containing sucrose, and after 48 hours incubation, the quantity of 0.1 normal NaOH (in ml) needed to neutralize the acid is measured.

S. mutans [3] = assay: Plaque inhibition in the hamster (S. mutans infected); format: in vivo, Golden Syrian hamsters; conditions: Test 2; mean scoring value (approximate percentage of surface); 28 days, 0.3% Methocel suspension, 200 μl per treatment; Methocel control 13.96 ± 1.49; significantly different from control at p ≤ 0.01
Procedure: Representative thiouronium phosphonates were tested against hamsters as in vivo subjects, as follows.
Golden Syrian hamsters (3-4 wks of age), obtained from GIBCO Animal Resources Laboratories, Madison, Wis. were used in all studies. Upon receipt, the animals were randomly distributed into cages of three animals of the same sex per cage. Experimental groups consisted of twelve animals, six males and six females. Food (Diet 2000, General Biochemicals Co.) and deionized water were allowed ad libitum. Food consumption was monitored three times a week while animal weights were checked twice a week.
After an acclimation period of 10 days, the oral cavities of the hamsters were infected with a cariogenic strain of S. mutans (ATCC 10449, SR 500). This was accomplished by injecting […] of a 24 hr. culture grown static in Todd-Hewitt broth (supplemented with 0.5% lactalbumin hydrolysate) into their mouths, and by adding 2 ml/100 ml of the culture to their drinking water. This was repeated daily for four days. On the fifth day, fresh water was given to the hamsters.
To insure that the organism had actually implanted, the oral cavity of each hamster was swabbed on the sixth day. […]
After all data had been recorded, the codes were broken, the data re-grouped and the various treatment groups compared by a non-parametric one-way analysis of variance.

[4] = against S. mutans grown in a typical culture medium

SMILES: CCCCCCCCCCSC(=N)N [n=10, R=C6 H5, n-Decyl thiouronium phenylphosphonate]
- MBC (S. mutans [1]; [4]): 3.9 µg/mL (≈ 18 µM)
- MIC (S. mutans [1]; [4]): 2 µg/mL (≈ 9.24 µM)
- AI (acid inhibition; amount of 0.1 normal NaOH required) (S. mutans [2]): 1.25 mL

SMILES: CCCCCCCCCCCSC(=N)N [n=11, R=C6 H5]
- MBC (S. mutans [1]; [4]): 2 µg/mL (≈ 8.68 µM)
- MIC (S. mutans [1]; [4]): 1 µg/mL (≈ 4.34 µM)
- AI (acid inhibition; amount of 0.1 normal NaOH required) (S. mutans [2]): 0.5 mL

SMILES: CCCCCCCCCCCCCSC(=N)N [n=13, R=C6 H5, Tridecyl thiouronium phenylphosphonate]
- MBC (S. mutans [1]; [4]): 2 µg/mL (≈ 7.74 µM)
- MIC (S. mutans [1]; [4]): 1 µg/mL (≈ 3.87 µM)
- AI (acid inhibition; amount of 0.1 normal NaOH required) (S. mutans [2]): 0.3 mL
- Molar Surface Covered with Plaque (S. mutans [3]): 7.06 ± 1.16

SMILES: CCCCCCCCCCCCCCSC(=N)N [n=14, R=CH3, n-Tetradecyl thiouronium methanephosphonate]
- MBC (S. mutans [1]): 7.8 µg/mL (≈ 28.6 µM)
- MIC (S. mutans [1]): 1 µg/mL (≈ 3.67 µM)
- AI (acid inhibition; amount of 0.1 normal NaOH required) (S. mutans [2]): 0.5 mL
